Common to all, as to format: functional, cell-based
One assay concerns K562. The experiment in a line: Cytotoxicity against human K562 cells after 48 hrs by MTT assay. The note with it: K562, 48 h. (In general: Tetrazolium dyes change colour on reduction, which living cells bring about.)
The subject of another assay is U-937. Kind of assay: Cytotoxicity against human U937 cells after 48 hrs by MTT assay. As to conditions: U-937, 48 h.
In a further assay the test system is HL-60. Kind of assay: Cytotoxicity against human HL60 cells after 48 hrs by MTT assay. As to conditions: HL-60, 48 h.
The nature of assay [1]: Cytotoxicity against human A375-S2 cells after 48 hrs by MTT assay. As to conditions: A375-S2, 48 h.
A further assay deals with HT-1080. Kind of assay: Cytotoxicity against human HT1080 cells after 48 hrs by MTT assay. As to conditions: HT-1080, 48 h.
In the next assay the test system is HCT-116. Kind of assay: Cytotoxicity against human HCT116 cells after 48 hrs by MTT assay. As to conditions: HCT-116, 48 h.
The test system of the next assay is A549. The experiment in a line: Cytotoxicity against human A549 cells after 48 hrs by MTT assay. As to conditions: A549, 48 h.
The next assay concerns HepG2. The experiment in a line: Cytotoxicity against human HepG2 cells after 48 hrs by MTT assay. The note with it: HepG2, 48 h.
Another assay concerns HeLa. Kind of assay: Cytotoxicity against human HeLa cells after 48 hrs by MTT assay.
In a further assay the test system is MCF7. The experiment in a line: Cytotoxicity against human MCF7 cells after 48 hrs by MTT assay. The note with it: MCF7, 48 h.

We go through 16 compounds from ChEMBL document CHEMBL2375331, “Daphnane-type diterpenes with inhibitory activities against human cancer cell lines from Daphne genkwa” (Bioorg Med Chem Lett, 2013).

Structures are written as SMILES. pIC50: −log10 of the molar value.

With `C=C(C)[C@@]12OC3(c4ccccc4)O[C@@H]1[C@@H]1[C@H](O)[C@](O)(CO)[C@@H](O)[C@]4(O)C(=O)[C@@H](C)C=C4[C@@]1(O3)[C@H](C)[C@H]2OC(=O)c1ccccc1`, the pIC50 – broadly, the IC50 on a negative log10 scale, so that one unit is a factor of ten – was 4.33 with K562; 4.52 in the assay on U-937; 4.56 in the assay with HL-60; 4.84 in assay [1]; 4.79 with HT-1080; < 4.30 in the assay on HCT-116. Also, the pIC50 was 4.57 in the assay on A549, 4.56 with HepG2, 4.61 in the assay on HeLa and 4.47 in the assay with MCF7.
In the case of `C=C(C)[C@]12C[C@@H](C)[C@@]34O[C@@]5(CCCCCCC[C@@H](C)[C@H]6[C@H](C)[C@H](O)[C@@](O)([C@H](O)[C@@]7(COC(=O)c8ccccc8)O[C@H]7[C@H]3[C@H]1O5)[C@@H]64)O2`, the pIC50 with K562 is 4.73; with U-937 it was 4.78; in the assay on HL-60, 4.74; in assay [1], 4.53; in the assay with HT-1080, 5.02; in the assay with HCT-116, 4.54. The pIC50 in the assay on A549 was 4.73; in the assay on HepG2, 4.95; in the assay with HeLa, < 4.30; with MCF7, 4.70.
As to `C=C(C)[C@]12C[C@@H](C)[C@@]34OC5(CCCCCCC[C@@H](C)[C@H]6[C@H](C)[C@H](O)[C@@](O)([C@H](O)[C@@](O)(COC(=O)c7ccccc7)[C@@H](O)[C@H]3[C@H]1O5)[C@@H]64)O2`, the pIC50 with K562 is < 4.30; in the assay with U-937, < 4.30; with HL-60, < 4.30; in assay [1] it was 4.54; in the assay on HT-1080, 5.11; in the assay with HCT-116, < 4.30. The pIC50 in the assay on A549 is 4.35; with HepG2, 4.54; in the assay with HeLa, 4.60; in the assay on MCF7, < 4.30.
As to `C=C(C)[C@@]12OC3(/C=C/C=C/CCCCC)O[C@@H]1[C@@H]1[C@@H]4O[C@]4(CO)[C@@H](O)[C@]4(O)C(=O)C(C)=C[C@H]4[C@@]1(O3)[C@H](C)[C@H]2OC(=O)C(C)C`, the pIC50 is 5.29 in the assay with K562; 4.56 in the assay with U-937; 4.52 in the assay with HL-60; 4.60 in [1]; 5.34 in the assay on HT-1080; 4.60 in the assay on HCT-116. Further, the pIC50 in the assay with A549 is 4.64; in the assay on HepG2, 4.75; in the assay on HeLa, < 4.30; in the assay with MCF7, 4.68.
Turning to `C=C(C)[C@]12C[C@@H](C)[C@]34OC5(CCCCCCC[C@H](C)[C@@H]6[C@@H]3[C@]3(O[C@]6(C)OC3=O)[C@H](O)[C@@]3(CO)O[C@H]3[C@H]4[C@H]1O5)O2`, the pIC50 in the assay on K562 was < 4.30; with U-937, < 4.30; with HL-60 it was < 4.30; in [1], < 4.30; in the assay on HT-1080, 6.08; in the assay with HCT-116, 4.44. In addition, the pIC50 is 4.45 in the assay on A549, 4.55 with HepG2, 4.55 with HeLa and 4.69 in the assay with MCF7.
On to `C=C(C)[C@]12C[C@@H](C)[C@]34OC5(CCCCCCC[C@@H](C)[C@@H]6[C@@H]3[C@]3(O[C@]6(C)OC3=O)[C@H](O)[C@@]3(CO)O[C@H]3[C@H]4[C@H]1O5)O2`, for which the pIC50 is 4.58 in the assay on K562; 4.64 in the assay with U-937; 4.47 in the assay on HL-60; 4.64 in [1]; 4.68 in the assay on HT-1080; 4.58 in the assay on HCT-116. Besides, the pIC50 with A549 was < 4.30; in the assay on HepG2, 4.60; with HeLa it was 4.63; in the assay with MCF7, 5.13.
As for `C=C(C)[C@@]12O[C@@]3(c4ccccc4)O[C@@H]1[C@@H]1[C@@H]4O[C@]4(CO)[C@@H](O)[C@]4(O)C(=O)C(C)=C[C@H]4[C@@]1(O3)[C@H](C)[C@H]2OC(C)=O`, the negative logarithm of the IC50 (pIC50) with K562 is < 4.30; with U-937, < 4.30; in the assay on HL-60, < 4.30; in assay [1] it was < 4.30; with HT-1080, > 7.00; in the assay on HCT-116 it was 4.43. Also, the pIC50 in the assay with A549 was < 4.30; with HepG2, < 4.30; with HeLa, 4.37; with MCF7 it was < 4.30.
Take `C=C(C)[C@@]12O[C@@]3(c4ccccc4)O[C@@H]1[C@@H]1[C@@H]4O[C@]4(CO)[C@@H](O)[C@]4(O)C(=O)C(C)=C[C@H]4[C@@]1(O3)[C@H](C)[C@H]2OC(=O)c1ccccc1`: the pIC50 with K562 is 4.65; in the assay with U-937 it was 4.88; in the assay with HL-60, 4.61; in [1] it was 4.77; in the assay with HT-1080, > 7.00; with HCT-116 it was 4.53. Besides, the pIC50 was 4.72 with A549, 4.62 in the assay with HepG2, 4.72 with HeLa and 5.63 with MCF7.
Turning to `C=C(C)[C@@]12OC3(/C=C/C=C/CCCCC)O[C@@H]1[C@@H]1[C@@H]4O[C@]4(CO)[C@@H](O)[C@]4(O)C(=O)C(C)=C[C@H]4[C@@]1(O3)[C@H](C)[C@H]2OC(=O)CC`, the pIC50 was 4.53 in the assay on K562; 4.56 in the assay with U-937; 4.64 with HL-60; < 4.30 in assay [1]; 4.54 with HT-1080; 4.33 in the assay on HCT-116. Moreover, the pIC50 in the assay with A549 is 4.73; with HepG2, 4.87; with HeLa, 4.59; with MCF7, < 4.30.
For `C=C(C)[C@@]12O[C@@]3(c4ccccc4)O[C@@H]1[C@@H]1[C@@H]4O[C@]4(CO)[C@@H](O)[C@]4(O)C(=O)[C@@H](C)C[C@H]4[C@@]1(O3)[C@H](C)[C@H]2OC(C)=O`, the pIC50 in the assay with K562 was < 4.30; in the assay on U-937, < 4.30; in the assay with HL-60, < 4.30; in assay [1] it was 4.85; with HT-1080, > 7.00; in the assay with HCT-116, < 4.30. Also, the pIC50 is < 4.30 in the assay with A549, < 4.30 with HepG2, 4.30 in the assay on HeLa and 4.63 with MCF7.
As for `C=C(C)[C@@]12O[C@@]3(c4ccccc4)O[C@@H]1[C@@H]1[C@@H]4O[C@]4(CO)[C@@H](O)[C@]4(O)C(=O)[C@@H](C)C[C@H]4[C@@]1(O3)[C@H](C)[C@H]2OC(=O)c1ccccc1`, the pIC50 with K562 is 4.61; in the assay with U-937, 4.91; with HL-60, 4.58; in assay [1] it was 5.03; in the assay with HT-1080 it was 4.84; in the assay on HCT-116 it was 4.60. Further, the pIC50 with A549 is 4.90; in the assay on HepG2 it was 4.62; in the assay on HeLa, 4.69; in the assay on MCF7, 6.43.
`C=C(C)[C@]12C[C@@H](C)[C@@]34OC(c5ccccc5)(OC1[C@@H]3[C@@H]1O[C@]1(COC(=O)c1ccccc1)[C@@H](O)[C@@]1(O)[C@H]4C[C@H](C)[C@@H]1O)O2`: the pIC50 was 4.70 in the assay with K562; 4.74 in the assay with U-937; 4.51 in the assay on HL-60; 5.44 in assay [1]; > 7.00 in the assay with HT-1080; 4.55 in the assay with HCT-116. For the same compound, the pIC50 in the assay with A549 was 4.63; with HepG2 it was 4.52; with HeLa it was 4.70; in the assay on MCF7, 4.60.
Take `C=C(C)[C@]12C[C@@H](C)[C@@]34OC(c5ccccc5)(O[C@@H]1[C@@H]3[C@H](O)[C@](O)(COC(=O)/C=C/C=C/CCCCC)[C@@H](O)[C@@]1(O)[C@H]4C[C@H](C)[C@@H]1O)O2`: the pIC50 in the assay on K562 was 4.62; with U-937 it was 4.62; in the assay on HL-60, 4.69; in assay [1], 4.59; in the assay on HT-1080, 4.52; in the assay on HCT-116, 4.56. In addition, the pIC50 with A549 was 4.65; in the assay on HepG2, 4.64; in the assay with HeLa it was 4.58; in the assay with MCF7, < 4.30.
Take `C=C(C)[C@]1(O)C[C@@H](C)[C@@]2(O)[C@H]([C@H]1OC(=O)c1ccccc1)[C@H](O)[C@](O)(COC(=O)/C=C/C=C/CCCCC)[C@@H](O)[C@@]1(O)[C@H]2C[C@H](C)[C@@H]1O`: the pIC50 with K562 was 4.61; in the assay with U-937, 4.81; in the assay with HL-60, 5.00; in assay [1] it was 4.63; with HT-1080, 4.64; with HCT-116 it was 4.45. Moreover, the pIC50 is 4.68 in the assay with A549, 4.75 in the assay with HepG2, 4.68 in the assay on HeLa and < 4.30 in the assay with MCF7.
As to `O=c1[nH]cc(F)c(=O)[nH]1` [FLUOROURACIL], the pIC50 in the assay with K562 is 4.63; in the assay with U-937 it was 4.62; in the assay with HL-60, 5.00; in [1], 5.18; in the assay on HT-1080, 4.45; in the assay on HCT-116 it was 4.56. Also, the pIC50 is 4.36 in the assay on A549, 4.39 in the assay with HepG2, 5.13 in the assay on HeLa and 4.94 in the assay on MCF7.
Turning to `C=C(C)[C@@]12O[C@@]3(/C=C/C=C/CCCCC)O[C@@H]1[C@@H]1[C@@H]4O[C@]4(CO)[C@@H](O)[C@]4(O)C(=O)C(C)=C[C@H]4[C@@]1(O3)[C@H](C)[C@H]2OC(=O)c1ccccc1` [GNIDILATIDIN], the pIC50 in the assay on K562 was 4.79; in the assay on U-937, 4.93; in the assay with HL-60, 4.57; in [1], 5.06; in the assay with HT-1080, 5.69; in the assay with HCT-116, 4.64. For the same compound, the pIC50 is 4.88 with A549, 5.09 with HepG2, 5.25 with HeLa and 5.62 in the assay on MCF7.
